Assay results reported in PubChem BioAssay AID179 (DTP/NCI, 2004).
Active and inactive are the calls of the source.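 How the source made its calls: active means compounds giving half or more protection of infected cells from virus-caused growth loss, again on retest; inactive means the rest.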 Where a SMILES comes first, the peptide text is derived from it.

Test system: CEM cells HIV-1 protection, formazan growth assay
Assay: NCI AIDS Antiviral Assay
Conditions: for IC50: measured here: growth of uninfected CEM cells
In short: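 Five concentrations of each compound were applied to infected and uninfected human CEM cells. Protection from HIV-1 was judged from growth measured with a soluble formazan assay.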

| Compound | EC50 | IC50 | outcome |
| --- | --- | --- | --- |
| COC(=O)C1c2c(C)cc3n2C(C=C(C)C3)C1C(=O)OC (stereo not drawn) | 75.9 µM | 107 µM |  |
| COC(=O)NC1(NC(=O)OC)NC(=O)c2cc(OC)c(OC)cc2N1 | > 200 µM | 12.9 µM |  |
| CCCCCCCCCCCC(=O)OCC(O)CO (stereo not drawn) | > 100 µM | 51.3 µM |  |
| O=S(=O)(Oc1ccccn1)c1ccc(Br)cc1 | > 200 µM | > 200 µM |  |
| O=C1c2c(O)ccc(O)c2C(=O)c2c(NCCCO)ccc(NCCCO)c21 | 13.5 µM | 18.6 µM |  |
| N=C1N(/N=C/c2ccccn2)C(=Nc2ccccc2)C(=S)N1c1ccccc1 | > 200 µM | 5.13 µM |  |
| O=[N+]([O-])c1ccc2c(c1)OCCOCCOc1ccc([N+](=O)[O-])cc1OCCOCCO2 |  |  | inactive |
| O=C1C2C3CCC(C3)C2S(=O)(=O)C2C3CCC(C3)C12 (stereo not drawn) | > 200 µM | > 200 µM |  |
| COc1cccc(-c2nnc(N)o2)c1 |  |  | inactive |
| COC(=O)[C@@H](O)[C@]1(C(=O)OC)C2O[C@@H](OC)[C@@H]1CCCCCC[C@H]2O | > 200 µM | > 200 µM |  |
| CN1CCN(c2cc3c(cc2F)c(=O)c(C(=O)O)cn3C2CC2)CC1CC#N (stereo not drawn) | > 200 µM | 148 µM |  |
| CCOC(=O)C1=C(OC(OCC)C([Se]c2ccccc2)C(C)C)CCC1 (stereo not drawn) | > 23.4 µM | > 23.4 µM |  |
| COc1cc(OC)c(/C=C2\N=C(C)N(Nc3nnc(NN4C(=O)/C(=C/c5c(OC)cc(OC)cc5OC)N=C4C)c4ccccc34)C2=O)c(OC)c1 |  |  | inactive |
| CSc1c(C#N)c2n(c3ccccc3[n+]2C)c2ncccc12 | > 200 µM | 3.31 µM |  |
| O=C(CCCCCCCCC(=O)NN1C(=O)/C(=C\c2ccc(O)c(O)c2)SC1c1c(O)ccc2ccccc12)NN1C(=O)C(=Cc2ccc(O)c(O)c2)SC1c1c(O)ccc2ccccc12 (stereo not drawn) | > 200 µM | 1 µM |  |
| O=C(CNc1cccc([N+](=O)[O-])c1)Nn1c(-c2ccccc2)nc2ccccc2c1=O | > 20 µM | 1.05 µM |  |
| NCCCNCc1c2ccccc2c(CNCCCN)c2ccccc12 | > 120 µM | 1.95 µM |  |
| CCN(CC)CCOc1ccc(C(O)(Cc2ccc(OC)cc2)c2ccccc2)cc1 (stereo not drawn) |  |  | inactive |
| O=C(Nc1ccn(C2CCC(COC(c3ccccc3)(c3ccccc3)c3ccccc3)O2)c(=O)n1)c1ccccc1 (stereo not drawn) | > 200 µM | 9.77 µM |  |
| CN(C)c1ccc(C=C2C(=O)OC(C)(C)OC2=O)cc1 |  |  | inactive |
| Cc1ccc(-c2c(C#N)c(N)nc3c2CCS(=O)(=O)c2ccccc2-3)cc1 | > 200 µM | 77.6 µM |  |
| O=c1[nH]nc(-c2ccccc2)n1/N=C/c1ccccc1O | > 200 µM | 115 µM |  |

| Compound | EC50 | IC50 | outcome |
| --- | --- | --- | --- |
| CC(=O)/C=C/c1ccc(C2CC(C)=Nc3c(ccc4c3C(=O)c3ccccc3C4=O)N2)cc1 (stereo not drawn) | > 6.31 µM | > 6.31 µM |  |
| Cc1nc2ccccc2cc1C[N+]12CN3CN(CN(C3)C1)C2 |  |  | inactive |
| CNC(=S)Nc1ccc(OC)c2ccccc12 | > 200 µM | > 200 µM |  |
| Fc1ccc(-c2sc(-c3cccs3)cc2Cc2cccs2)cc1 |  |  | inactive |
| Cc1ccc2c(c1)C(=O)N(CC[P+](c1ccccc1)(c1ccccc1)c1ccccc1)C2=O | > 200 µM | 30.9 µM |  |
| Cc1cc(S(=O)(=O)NC(=NCCc2ccccc2)NN)c(S)cc1Cl | > 200 µM | 25.7 µM |  |
| CCC(c1ccc(Cl)cc1)N1CCC2(CC1)C(=O)NCN2c1ccccc1 (stereo not drawn) | > 200 µM | > 200 µM |  |
| N#Cc1c(N=Cc2ccccc2)c(C(=O)Nc2ccccc2)n2c1CCCC2 | > 200 µM | > 200 µM |  |
| CN(/N=C(\C(=O)O)c1ccccc1)C1=NCCCN1 | > 200 µM | > 200 µM |  |
| CCCCc1c2c([n+]([O-])c3c1CCCC3)CCCC2 | > 138 µM | 22.4 µM |  |
| CCN(CC)CCCNC(=O)C1COc2cc(-c3cc(=O)c4ccccc4o3)ccc2O1 (stereo not drawn) |  |  | inactive |
| CC1(C)C=Cc2c(ccc3c(=O)c(-c4ccccc4)coc23)O1 | > 100 µM | > 100 µM |  |
| O=[N+]([O-])c1cccc(-c2csc(NNC3=NC/C(=C/c4ccc5c(c4)OCO5)S3)n2)c1 | > 200 µM | 117 µM |  |
| CC(=O)NC(CO)C(=O)NC(Cc1ccc(O)cc1)C(=O)NCC(N)=O (stereo not drawn) (Ac-Ser-Tyr-Gly-NH2; configuration not given here) | > 200 µM | > 200 µM |  |
| CC(=O)OCN(C)c1nc(N(C)COC(C)=O)nc(N(C)COC(C)=O)n1 | > 50.1 µM | > 50.1 µM |  |
| CC(=O)[O-].COc1cccc(/C=N/[N-]C(=O)c2ccncc2)c1.[OH3+].[OH3+].[OH3+].[Zn+2] | > 200 µM | 3.89 µM |  |
| Cc1ccc(-n2nncc2[Si](C)(C)C)s1 | > 200 µM | 148 µM |  |
| N=C(N)n1[nH]c2c(c1=O)CCC2 | > 200 µM | > 200 µM |  |
| [N-]=[N+]=Nc1c(Cl)c(Cl)nc2ccccc12 | > 200 µM | 61.7 µM |  |
| O=C(/C=C/c1ccc(OCCCOc2ccc(/C=C/C(=O)c3ccccc3)cc2)cc1)c1ccccc1 | > 10.7 µM | > 10.7 µM |  |
| CCc1cccc(C)c1N1C(=O)C(=O)C(c2nc3ccccc3o2)C(=O)C1=O | > 331 µM | 66.1 µM |  |
